According to BindingDB's records for doi:10.1021/jm00031a001 (Fisons, 1994):
One block for each compound: values may come before it.

Columns and labels:
[1] = target: Phospholipase A2 group IB (pancreatic, Sus scrofa); test: In vitro activity against porcine pancreatic phospholipase-A2 (PLA2) and monomerically dispersed substrate
[2] = target: Phospholipase A2 group IB (Sus scrofa); test: In vitro activity against porcine pancreatic phospholipase-A2 (PLA2) and micellar substrate with deoxycholate (DOC)

SMILES: CCCCCCCCCCCCCCCC(=O)N[C@@H](CCCC(=O)O)CC(C)C [(S)-5-((S)-Hexadecanoylamino)-7-methyl-octanoic acid]
IC50 [1]: 1300 nM
IC50 [2]: 19 µM

SMILES: CCCCCCCCCC(=O)N[C@@H](CC(=O)O)CC(C)C [(R)-3-((S)-Decanoylamino)-5-methyl-hexanoic acid]
IC50 [1]: 1400 nM
IC50 [2]: 15 µM

SMILES: CCCCCCCCCCCCCCCC(=O)N[C@@H](CCC(=O)O)CC(C)C [(S)-4-((S)-Hexadecanoylamino)-6-methyl-heptanoic acid]
IC50 [1]: 200 nM
IC50 [2]: 4.5 µM

SMILES: CCCCCC/C=C/CC(=O)N[C@@H](CC(=O)O)CC(C)C [(R)-3-((S)-(E)-Dec-3-enoylamino)-5-methyl-hexanoic acid]
IC50 [1]: 300 nM
IC50 [2]: 8.5 µM

The next compounds have a lower IC50 [1] than those just listed; values first:

IC50 [1]: 190 nM
IC50 [2]: 7.3 µM
SMILES: CCCCCCCCCCCCCCCC(=O)N[C@@H](CC(=O)O)CC(C)C [(R)-3-((S)-Hexadecanoylamino)-5-methyl-hexanoic acid]

IC50 [1]: 23 nM
IC50 [2]: 0.79 µM
SMILES: CCCCCC/C=C/CC(=O)N[C@H](CSc1ccc2ccccc2c1)CC(=O)O [(S)-3-((S)-(E)-Dec-3-enoylamino)-4-(naphthalen-2-ylsulfanyl)-butyric acid]

IC50 [1]: 95 nM
IC50 [2]: 2.2 µM
SMILES: CCCCCC/C=C/CC(=O)N[C@H](CSc1ccccc1)CC(=O)O [(S)-3-((S)-(E)-Dec-3-enoylamino)-4-phenylsulfanyl-butyric acid]
